Data from patent US9890403B2, “Method for producing single cell oil from lignocellulosic materials” (NESTE OYJ, priority 2013, dated 2018).
Read-outs that look alike come from different tables or passages of the source.

Key:
Aspergillus. oryzae = settings: 5 days, 28 C
Method: The experiments were done using a lipid producing fungal strain Aspergillus. oryzae. From the sporulating fungus grown on PDA-plates a spore suspension was made by adding 12 ml of sterile water and the spores were scraped off with inoculation loop to the liquid. The spore suspension was used for media inoculation.
All of them contained these basic nutrients, and small amount of fine cellulose to prevent the fungus from clumping.
The organic acids were added in so the concentration of the formic and acetic acid alone was 0, 1, 3, 5 and 7 g/l, and for the two acids together 0, 1, 3, 5, 7 and 9 g/l. After this the pH of the media was adjusted to 5.5-6.0 using 3 M NaOH. The medium was distributed to 50 ml batches into 250 ml erlenmayer flasks. The media was sterilized in autoclave 121 C 15 min. After cooling down, each flask was inoculated using 0.5 ml spore suspension mentioned earlier. For each concentration, parallel cultivations were made. The cultivations were incubated in 160 rpm shaking at 28 C 5 days. The growth was observed daily with a microscope, and in the end of the cultivation the biomass and lipid contents were determined.
The biomass content was determined by vacuum filtering the whole content of the flask and washing the biomass with 50 ml of distilled water. After this the biomass cakes were frozen and dried overnight in freeze dryer. From the dries biomass the lipid content was analyzed according to Suutari et al. (1990). The lipids in the samples were first hydrolysed into free fatty acids, which were saponified into sodium salts thereof and thereafter methylated into methyl esters. The fatty methyl esters were analysed gas chromatographically.

[1] = test system: Mortierella isabellina TKK-1; assay: Effect of furfural on microbial growth, flask cultivation (Example 7); type: cell-based; settings: for DW (dry weight concentration): after 6 days of cultivation
Method: (§1) Two fungal strains Aspergillus oryzae TKK-4 and Mortierella isabellina TKK-1 and one yeast strain Lipomyces starkeyi TKK-1 were cultivated in flasks in a standard medium (Table 12) with furfural addition. The microorganisms were grown for 6 days in 28° C. with 160 rpm (for fungi) and 250 rpm (for yeast). Cellulose was added to help the fungus grow with a better morphology. Furfural was added in different amounts into the medium (0-4 g/l) and the growth of the microorganisms was observed.

Aspergillus oryzae TKK-4 = assay: as above; type: cell-based; settings: for DW (dry weight concentration): after 6 days of cultivation
Method: as §1

Lipomyces starkeyi TKK-1 = assay: as above; type: cell-based; settings: for DW (dry weight concentration): after 6 days of cultivation
Method: as §1

Row | SMILES | Biomass concentration (Aspergillus. oryzae; acid concentration 1 g/l) | Lipid content (Aspergillus. oryzae; acid concentration 1 g/l) | Biomass concentration (Aspergillus. oryzae; acid concentration 3 g/l) | Lipid content (Aspergillus. oryzae; acid concentration 3 g/l) | Biomass concentration (Aspergillus. oryzae; acid concentration 5 g/l) | Lipid content (Aspergillus. oryzae; acid concentration 5 g/l) | Biomass concentration (Aspergillus. oryzae; acid concentration 7 g/l) | Lipid content (Aspergillus. oryzae; acid concentration 7 g/l) | also measured
1 | CC(=O)O [Acetic acid, acetic acid] | 12.4 g/L | 19.8 % from cell dry weight | 11.4 g/L | 20.7 % from cell dry weight | 11.1 g/L | 21.2 % from cell dry weight | 11.5 g/L | 24.3 % from cell dry weight | 
2 | O=Cc1ccco1 [Furfural] |  |  |  |  |  |  |  |  | Furfural concentration in which the microbe did not grow [1]: ≥ 1 g/L; Furfural concentration in which some growth was observed ([1]; after 4-6 days): 0.8 g/L; DW (dry weight concentration) ([1]; furfural 0.2 g/l): 7.02 g/L; DW (dry weight concentration) ([1]; furfural 0.4 g/l): 13.80 g/L; DW (dry weight concentration) ([1]; furfural 0.6 g/l): 14.96 g/L; DW (dry weight concentration) ([1]; furfural 0.8 g/l): 9.28 g/L; Furfural concentration in which the microbe grew (Aspergillus oryzae TKK-4; after one week): 0.5 g/L; Furfural concentration that inhibited the growth completely (Aspergillus oryzae TKK-4; after one week): ≥ 0.75 g/L; DW (dry weight concentration) (Aspergillus oryzae TKK-4; furfural 0.1 g/l): 18.18 g/L; DW (dry weight concentration) (Aspergillus oryzae TKK-4; furfural 0.2 g/l): 16.54 g/L; DW (dry weight concentration) (Aspergillus oryzae TKK-4; furfural 0.3 g/l): 13.53 g/L; DW (dry weight concentration) (Aspergillus oryzae TKK-4; furfural 0.4 g/l): 11.58 g/L; Inhibiting concentration of furfural (Lipomyces starkeyi TKK-1): ≥ 1.8 g/L; Furfural concentration in which the microbe grew (Lipomyces starkeyi TKK-1; after a few days): 1.2 g/L; DW (dry weight concentration) (Lipomyces starkeyi TKK-1; furfural 0.6 g/l): 14.79 g/L; DW (dry weight concentration) (Lipomyces starkeyi TKK-1; furfural 1.2 g/l): 14.39 g/L
3 | O=CO [Formic acid, formic acid] | 12.5 g/L | 19.5 % from cell dry weight | 12.0 g/L | 19.5 % from cell dry weight | 11.2 g/L | 15.9 % from cell dry weight | 10.9 g/L | 19.8 % from cell dry weight | 
